Test system: Mus musculus
Assay: Sedative activity in Mus musculus Swiss albino (mouse) at 10 mg/kg, ip after 1 hr relative to control
Format: organism-based
Set-up: dose 10 mg/kg, route intraperitoneal
Details: in vivo

First: NC(=O)c1c(N2CCN(CCO)CC2)nc2sc3cc(Cl)ccc3n2c1=O
Second: CCN1CCN(c2nc3sc4cc(Cl)ccc4n3c(=O)c2C(N)=O)CC1
The Activity of the first is higher: 30.37% for the first, 22.66% for the second.

First: CN(C)CCNc1nc2sc3cc(Cl)ccc3n2c(=O)c1C(N)=O
Second: CN(C)CCNc1nc2sc3ccccc3n2c(=O)c1C(N)=O
The Activity of the first is lower: 25.97% for the first, 36.25% for the second.

Going from `NC(=O)c1c(N2CCCC2)nc2sc3cc(Cl)ccc3n2c1=O` to `NC(=O)c1c(N2CCCCC2)nc2sc3cc(Cl)ccc3n2c1=O`, the Activity falls from 38.27% to 20.51%.

Compared with `CN1CCN(c2nc3sc4cc(Cl)ccc4n3c(=O)c2C(N)=O)CC1`, `CN1CCN(c2nc3sc4ccccc4n3c(=O)c2C(N)=O)CC1` is higher in Activity: 32.92% for the first, 35.21% for the second.

Going from `NC(=O)c1c(N2CCOCC2)nc2sc3cc(Cl)ccc3n2c1=O` to `NC(=O)c1c(N2CCOCC2)nc2sc3ccccc3n2c1=O`, the Activity rises from 23.17% to 24.32%.

Compared with `NC(=O)c1c(N2CCN(CCO)CC2)nc2sc3ccccc3n2c1=O`, `CCN1CCN(c2nc3sc4ccccc4n3c(=O)c2C(N)=O)CC1` is lower in Activity: 36.47% for the first, 26.43% for the second.

Going from `NC(=O)c1c(N2CCCCC2)nc2sc3ccccc3n2c1=O` to `NC(=O)c1c(N2CCCC2)nc2sc3ccccc3n2c1=O`, the Activity rises from 23.61% to 33.33%.

With `CN(C)CCC(c1ccc(Cl)cc1)c1ccccn1.O=C(O)/C=C\C(=O)O` (stereo not given) [CHLORPHENIRAMINE MALEATE] the Activity was 69.01%.
